Laboratory results taken from patent US9128097B2, “Method and kit for assessing viable cells” (ChemoMetec A/S, priority 2008, dated 2015).

Key:
bone marrow cells = test: NAM/PI staining of bone marrow derived cells; assay type: cell-based, murine; settings: bone marrow cells 93% viable; 10 μL NAM (100 μg pr. mL DMSO) to 90 μL cells
Description: Materials and Methods. The bone marrow cells were harvested aseptically in the laminarflow hood. Briefly, bilateral tibia and femur were aseptically removed, freed of surrounding soft tissue, and placed in a petri dish with 10 mL 70% ethanol. After 2 minutes they were transferred to ice cold PBS. The bone marrow cavity was then flushed with 5 ml cold PBS using a 5-ml syringe with a 27-gauge needle attached, and the cells were collected from each bone. The cells were centrifuged at 300 g for 10 min, the supernatant was discarded, and cells were washed twice. […] 90 μL bone marrow cellss (cell density 1.7×10^6, 93% viable determined using the NC-100 NucleoCounter system following the manufacturer's (ChemoMetec A/S) protocol) were added 10 μL NAM (N-(9-acridinyl)maleimide, Sigma, #01665, CAS no. 49759-20-8) dissolved in DMSO (100 μg NAM pr. mL DMSO) and mixed by pipetting. […] The cells were investigated using an Olympus IX50 fluorescence microscope, and images were captured using a Lumenera CCD camera and in-house developed software. PI and NAM fluorescence were detected using, respectively, U-MWG2 (green long pass: 510-550 nm) and U-MNUA2 (UV band pass, 330-385 nm) filter cubes (Olympus).

HEK293 cells = test: NAM/PI staining of outgrown HEK293 cells, fluorescence microscopy; assay type: cell-based, Human; settings: 10 μg/mL NAM
Description: Materials and Methods. HEK293 cells were grown at 37° C. in a humidified air atmosphere with 5% CO2 in DMEM (Invitrogen, #31966) supplemented with 10% heat-inactivated fetal bovine serum (Invitrogen, #10108-165). Cells were harvested with 0.5 mL of trypsin (Invitrogen, #25300) and neutralized with 5 mL medium (DMEM+10% FCS) two days after they had reached full confluency. These outgrown HEK293 cells (cell density 1.6×10^6, 78% viable determined using the NC-100 NucleoCounter system following the manufacturer's (ChemoMetec) protocol) were stained with 10 μg/mL NAM (Sigma, #01665). Another cell sample were treated with 0.25% Triton X-100 (Sigma, #T9284) and hereafter added 10 μg/mL NAM. After staining, each cell sample was loaded into a NucleoCassette, containing the DNA stain propidium iodide (PI). The cells were investigated using an Olympus IX50 fluorescence microscope, and images were captured using a Lumenera CCD camera and in-house developed software. PI and NAM fluorescence were detected using, respectively, U-MWG2 (green long pass: 510-550 nm) and U-MNUA2 (UV band pass, 330-385 nm) filter cubes (Olympus).

Drosophila S2 cells = test: NAM/PI staining of Drosophila S2 cells, fluorescence microscopy; assay type: cell-based, Drosophila melanogaster; settings: S2 cells diluted 10 times in PBS; 10 μg/mL NAM
Description: Materials and Methods. Drosophila S2 cells were grown at 28° C. without shaking in Schneider's Drosophila medium (Invitrogen, #21720) supplemented with 10% heat-inactivated fetal bovine serum (Invitrogen, #10108-165). S2 cells (cell density 1.7×10^7, 99% viable determined using the YC-100 NucleoCounter system with diploid settings following the manufacturer's (ChemoMetec) protocol) were diluted 10 times in PBS and stained with 10 μg/mL NAM (Sigma, #01665). Cells were loaded into a NucleoCassette, containing the DNA stain propidium iodide (PI). The cells were investigated using an Olympus IX50 fluorescence microscope, and images were captured using a Lumenera CCD camera and in-house developed software. PI and NAM fluorescence were detected using, respectively, U-MWG2 (green long pass: 510-550 nm) and U-MNUA2 (UV band pass, 330-385 nm) filter cubes (Olympus).

[1] = test system: primary murine splenocytes; test: NAM/PI staining of primary murine splenocytes; assay type: cell-based, C57BL/6 mouse; settings: splenocytes 90% viable; 10 μL NAM (100 μg pr. mL DMSO) to 90 μL cells
Description: Materials and Methods. The spleen from a C57BL/6 mouse was placed in ice-cold PBS and gently ground using the end of a sterile syringe. The suspension was centrifuged at 300 g for 10 minutes; the pellet was resuspended in 1 mL 0.83% NH4Cl to lyse erythrocytes and incubated for 3 minutes on ice. The cells were then added 14 mL PBS and centrifuged at 300 g for 10 minutes. The splenocytes were resuspended in RPMI (Invitrogen, #61870) supplemented with 10% heat-inactivated fetal bovine serum (Invitrogen, #10108-165), 100 U/mL penicillin and 100 μg/mL streptomycin (Invitrogen, #15140-122). The cell clumps were allowed to sediment and were removed by pipetting, and the resulting single cell suspension was used. 90 μL splenocytes (cell density 1.7×10^6, 90% viable determined using the NC-100 NucleoCounter system following the manufacturer's (ChemoMetec A/S) protocol) were added 10 μL NAM (N-(9-acridinyl)maleimide, Sigma, #01665, CAS no. 49759-20-8) dissolved in DMSO (100 μg NAM pr. mL DMSO) and mixed by pipetting. […] The cells were investigated using an Olympus IX50 fluorescence microscope, and images were captured using a Lumenera CCD camera and in-house developed software. PI and NAM fluorescence were detected using, respectively, U-MWG2 (green long pass: 510-550 nm) and U-MNUA2 (UV band pass, 330-385 nm) filter cubes (Olympus).

## O=C1C=CC(=O)N1c1c2ccccc2nc2ccccc12 [NAM, N-(9-acridinyl)maleimide]
Bone marrow cells
  staining of cells (UV filter) versus PI positive cells: nearly all the primary bone marrow cells were stained by NAM
HEK293 cells; HEK293 cells treated with 0.25% Triton X-100
  staining of Triton X-100 treated cells: NAM negative
HEK293 cells; outgrown HEK293 cells, 78% viable
  staining of cells versus PI: NAM and PI were found to complementary stain the outgrown HEK293 cells
Drosophila S2 cells
  staining of cells versus PI: NAM and PI were found to complementary stain S2 cells
[1]
  staining of cells (UV filter) versus PI positive cells: nearly all the primary spleen cells were stained by NAM
